Laboratory results: patent publication US20050234248A1, “Method of producing preparations rich in tocotrienol” (Vis-Vitalis Lizenz- Und Handels Gmbh, priority 2002, published 2005)

System: human serum loaded with p-benzoquinone (quinhydron radicals)
Assay: Antioxidant capacity: human serum loaded with p-benzoquinone, colorimetric determination of p-dihydroquinone at 500 nm
Conditions: for Antiox-Titer: human serum, p-benzoquinone load, extinction at 500 nm/60 sec; for 1 mg of tocotrienol effect in μg radicals/ml · sec.: per 1 mg of tocotrienol; for Radicals μg/ml · sec: radicals inhibited, converted from extinction
Text: In this examining method, human serum is subjected to the oxidative stress of a defined amount of para-benzoquinone. By adding defined amounts of the antioxidants to be tested (natural tocotrienol mixture of wheat bran oil, wheat germ oil, tocopherol acetat, D-alpha-tocopherol), the antioxidant load bearing capacity of the test sample is quantitated by calorimetric determination of the para-dihydroquinone that has been reduced from para-benzoquinone. […] Human donor blood is recovered from the vein without any additives and centrifuged at 800-1000 g after having been left standing for 1 h in the refrigerator (approximately +4° C.-+7° C.). The separated serum fractions are removed and pooled. The serum can be stored at -22° C. for about 14 days or immediately be used for the required measurements. To determine the antioxidant capacity of an antioxidant, the serum is radically loaded in stages. p-Benzoquinone was used for radical formation. In a physiological environment (pH=slightly alkaline), this substance is converted into the relatively stable radical anion of the quinhydrone system. In doing so, one hydrogen atom (1 proton/1 electron) of p-benzoquinone is taken up. The further reaction to the stable end product p-dihydroquinone takes place inversely proportionally, at pH 6.9-7.4 within minutes, and primarily linearly to the antioxidant content (reducing agent) in the reaction environment. Thus, the conditions for the applicability of Lambert-Beer's law have been met for determining the end product (dihydro-quinone) as a typically coloured substance. The comparatively stable radical anion (quinhydrone) is converted into the dihydroquinone in a second reduction step by taking up a further electrone (hydrogen from the available antioxidants). […] The calorimetric determination of the amount of end product is effected at λ=500 nm. […] With a linear extinction increase-and a linearly growing consumption of the antioxidant-active substance, the reacted portions can be precisely calculated from the stoichiometric reaction conditions. According to Michaelis/[…] and Pauling, respectively (Holleman-Wiberg; Lehrbuch der Anorganischen Chemie, de Gruyter-Verlag (1995)), the reaction intensity up to the dihydroquinone will depend on the ratio of the concentrations of oxidised to reduced. I.e., the higher the reduction (antioxidant) supply, the more the reaction will be inhibited, the content of the dihydroquinone forming will decrease. Thus, this reaction is excellently suited to be used in redox systems for finely dosed quantitative determinations for substances that are reducingly active. In three parallel measurement series, serum samples ([…] each) of the pool with p-benzoquinone are loaded in three stages (10, 20 and 30 μg). […] In the calculated reaction quantities, the mean of the 60 second value corresponds to the defined titer (=one third reaction). This value precisely results from the graphic illustration of the mean values as extinction curve. All further tests with antioxidant addition are comparatively related to this defined calibration value of the serum pool without antioxidant addition (i.e., with an increasing supply of antioxidants in the serum, the extinction must drop for dihydroquinone). Three parallel measurement series of serum samples were carried out under addition of 500 μg/ml of preparation according to the invention to determine the antioxidant capacity of the tocotrienol-rich wheat bran oils according to the invention. […] Referring to the curve of the extinction values of the comparative serum without additions and the stoichiometric reaction conditions applied (serum determination/concentration of p-benzoquinone/amount per ml of serum dilution), the conversion factor extinction to radical inhibition will result from this calibration system. […] For a more encompassing evaluation of the product quality, the comparison with other antioxidants is required. […]

Row | Compound | Antiox-Titer | 1 mg of tocotrienol effect in μg radicals/ml · sec. | Radicals μg/ml · sec
1 | Cc1c(C)c2c(c(C)c1O)CC[C@@](C)(CCC[C@H](C)CCC[C@H](C)CCCC(C)C)O2 [D-alpha-Tocopherol, D-alpha-tocopherol] | 0.06 | 0.00674 μg radicals/ml · sec. | 1.6848 μg/ml · sec
2 | CC(=O)Oc1c(C)c(C)c2c(c1C)CCC(C)(CCC[C@H](C)CCC[C@H](C)CCCC(C)C)O2 (stereo partly drawn) [Tocopherol acetate, D,L-alpha-tocopherol acetate] | 0.125 | 0.014 μg radicals/ml · sec. | 3.51 μg/ml · sec
